Results: ChEMBL document CHEMBL1201861, “Genomics of Drug Sensitity in Cancer screening data, Wellcome Trust Sanger Institute”
pIC50: −log10 of the molar value.

How the values were obtained:
Test in all cases: cells
EM-2 = type: functional, cell-based; conditions: Homo sapiens;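 note: growth inhibition of EM-2 cells, read out with a cell viability assay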
Description: SANGER: Inhibition of human EM-2 cell growth in a cell viability assay.

MZ7-mel = type: functional, cell-based, Homo sapiens; conditions: Homo sapiens, MZ7-mel;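 note: growth inhibition of human MZ7-mel cells, measured by a cell viability assay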
Description: SANGER: Inhibition of human MZ7-mel cell growth in a cell viability assay.

HT-1376 = type: functional, cell-based, Homo sapiens; conditions: Homo sapiens, HT-1376
Description: SANGER: Inhibition of human HT-1376 cell growth in a cell viability assay.

ACHN = type: functional, cell-based, Homo sapiens; conditions: Homo sapiens, ACHN;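 note: cell viability read-out used to gauge how strongly growth of human ACHN cells is suppressed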
Description: SANGER: Inhibition of human ACHN cell growth in a cell viability assay.

SW 954 = type: functional, cell-based, Homo sapiens; conditions: Homo sapiens, SW 954;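 note: growth inhibition of SW954 human cancer cells, read out as cell viability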
Description: SANGER: Inhibition of human SW954 cell growth in a cell viability assay.

LS-411N = type: functional, cell-based, Homo sapiens; conditions: Homo sapiens, LS-411N
TE-6 = type: functional, cell-based, Homo sapiens; conditions: Homo sapiens, TE-6;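 note: growth inhibition of TE-6 cells, read out with a cell viability assay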
Description: SANGER: Inhibition of human TE-6 cell growth in a cell viability assay.

MKN-7 = type: functional, cell-based, Homo sapiens; conditions: Homo sapiens, MKN-7;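 note: growth inhibition of MKN-7 cells, read out with a cell viability assay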
Description: SANGER: Inhibition of human MKN7 cell growth in a cell viability assay.

MHH-PREB-1 = type: functional, cell-based; conditions: Homo sapiens;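 note: cell viability assay measuring inhibition of proliferation of human MHH-PREB-1 cells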
Description: SANGER: Inhibition of human MHH-PREB-1 cell growth in a cell viability assay.

PFSK-1 = type: functional, cell-based, Homo sapiens; conditions: Homo sapiens, PFSK-1;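 note: cell viability assay measuring how strongly compounds suppress growth of human PFSK-1 cells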
Description: SANGER: Inhibition of human PFSK-1 cell growth in a cell viability assay.

SCC-15 = type: functional, cell-based, Homo sapiens; conditions: Homo sapiens, SCC-15;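 note: growth inhibition of SCC-15 cells, read out with a cell viability assay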
Description: SANGER: Inhibition of human SCC-15 cell growth in a cell viability assay.

NTERA-2-cl-D1 = type: functional, cell-based, Homo sapiens; conditions: Homo sapiens, NTERA-2-cl-D1;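 note: inhibition of cell growth, measured with a cell viability assay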
Description: SANGER: Inhibition of human NTERA-S-cl-D1 cell growth in a cell viability assay.

CGTH-W-1 = type: functional, cell-based, Homo sapiens; conditions: Homo sapiens, CGTH-W-1;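 note: growth inhibition of human CGTH-W-1 cells measured by cell viability assay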
Description: SANGER: Inhibition of human CGTH-W-1 cell growth in a cell viability assay.

EW-13 = type: functional, cell-based; conditions: Homo sapiens;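 note: growth inhibition of EW-13 cells, read out with a cell viability assay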
Description: SANGER: Inhibition of human EW-13 cell growth in a cell viability assay.

DOHH-2 = type: functional, cell-based; conditions: Homo sapiens;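 note: growth inhibition of human DOHH-2 cells, read out with a cell viability assay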
Description: SANGER: Inhibition of human DOHH-2 cell growth in a cell viability assay.

LC-2-ad = type: functional, cell-based, Homo sapiens; conditions: Homo sapiens, LC-2-ad;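 note: growth inhibition of human LC-2-ad cells, read out with a cell viability assay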
Description: SANGER: Inhibition of human LC-2-ad cell growth in a cell viability assay.

8-MG-BA = type: functional, cell-based, Homo sapiens; conditions: Homo sapiens, 8-MG-BA;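 note: growth inhibition of 8-MG-BA cells, read out with a cell viability assay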
Description: SANGER: Inhibition of human 8-MG-BA cell growth in a cell viability assay.

MZ2-MEL = type: functional, cell-based, Homo sapiens; conditions: Homo sapiens, MZ2-MEL;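 note: growth inhibition of MZ2-MEL cells read out with a cell viability assay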
Description: SANGER: Inhibition of human MZ2-MEL cell growth in a cell viability assay.

A388 = type: functional, cell-based, Homo sapiens; conditions: Homo sapiens, A388;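 note: growth inhibition of human A388 cells, read out with a cell viability assay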
Description: SANGER: Inhibition of human A388 cell growth in a cell viability assay.

HGC-27 = type: functional, cell-based, Homo sapiens; conditions: Homo sapiens, HGC-27;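 note: growth inhibition of human HGC-27 cells, read out in a cell viability assay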
Description: SANGER: Inhibition of human HGC-27 cell growth in a cell viability assay.

COLO-668 = type: functional, cell-based, Homo sapiens; conditions: Homo sapiens, COLO-668
Description: SANGER: Inhibition of human COLO-668 cell growth in a cell viability assay.

ALL-PO = type: functional, cell-based; conditions: Homo sapiens;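 note: growth inhibition of ALL-PO cells, read out by a cell viability assay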
Description: SANGER: Inhibition of human ALL-PO cell growth in a cell viability assay.

CAMA-1 = type: functional, cell-based, Homo sapiens; conditions: Homo sapiens, CAMA-1;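 note: growth inhibition of CAMA-1 cells, read out with a cell viability assay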
Description: SANGER: Inhibition of human CAMA-1 cell growth in a cell viability assay.

HCC70 = type: functional, cell-based, Homo sapiens; conditions: Homo sapiens, HCC70;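 note: cell viability assay measuring how strongly the compound suppresses proliferation of HCC70 cells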
Description: SANGER: Inhibition of human HCC70 cell growth in a cell viability assay.

NCI-H1693 = type: functional, cell-based, Homo sapiens; conditions: Homo sapiens, NCI-H1693;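 note: growth inhibition of the human cell line, read out with a cell viability assay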
Description: SANGER: Inhibition of human NCI-H1693 cell growth in a cell viability assay.

TYK-nu = type: functional, cell-based, Homo sapiens; conditions: Homo sapiens, TYK-nu;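 note: growth inhibition of human TYK-nu cells, read out by a cell viability assay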
Description: SANGER: Inhibition of human TYK-nu cell growth in a cell viability assay.

ONS-76 = type: functional, cell-based, Homo sapiens; conditions: Homo sapiens, ONS-76;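 note: growth inhibition of human ONS-76 cells, read out with a cell viability assay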
Description: SANGER: Inhibition of human ONS-76 cell growth in a cell viability assay.

HN = type: functional, cell-based, Homo sapiens; conditions: Homo sapiens, HN
Description: SANGER: Inhibition of human HN cell growth in a cell viability assay.

RCM-1 = type: functional, cell-based, Homo sapiens; conditions: Homo sapiens, RCM-1;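 note: growth inhibition of the RCM-1 line, determined with a cell viability readout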
Description: SANGER: Inhibition of human RCM-1 cell growth in a cell viability assay.

NCI-H1648 = type: functional, cell-based, Homo sapiens; conditions: Homo sapiens, NCI-H1648;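 note: cell viability assay measuring inhibition of NCI-H1648 cell growth, from the Sanger screening data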
Description: SANGER: Inhibition of human NCI-H1648 cell growth in a cell viability assay.

NB5 = type: functional, cell-based, Homo sapiens; conditions: Homo sapiens, NB5;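 note: growth inhibition of NB5 cells, read out as cell viability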
Description: SANGER: Inhibition of human NB5 cell growth in a cell viability assay.

LOX IMVI = type: functional, cell-based; conditions: Homo sapiens
Description: SANGER: Inhibition of human LOXIMVI cell growth in a cell viability assay.

DU-4475 = type: functional, cell-based; conditions: Homo sapiens
Description: SANGER: Inhibition of human DU-4475 cell growth in a cell viability assay.

SW1417 = type: functional, cell-based, Homo sapiens; conditions: Homo sapiens, SW1417;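 note: growth inhibition of human SW1417 cells, read out with a cell viability assay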
Description: SANGER: Inhibition of human SW1417 cell growth in a cell viability assay.

ES6 = type: functional, cell-based, Homo sapiens; conditions: Homo sapiens, ES6;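 note: growth inhibition of human ES6 cells, read out with a cell viability assay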
Description: SANGER: Inhibition of human ES6 cell growth in a cell viability assay.

HuP-T4 = type: functional, cell-based, Homo sapiens; conditions: Homo sapiens, HuP-T4;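 note: cell viability assay measuring how much HuP-T4 cell growth is inhibited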
Description: SANGER: Inhibition of human HuP-T4 cell growth in a cell viability assay.

VMRC-RCZ = type: functional, cell-based; conditions: Homo sapiens;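 note: growth inhibition measured with a cell viability assay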
Description: SANGER: Inhibition of human VMRC-RCZ cell growth in a cell viability assay.

SW-620 = type: functional, cell-based, Homo sapiens; conditions: Homo sapiens, SW-620;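 note: growth inhibition of human SW-620 cells, measured by a cell viability assay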
Description: SANGER: Inhibition of human SW620 cell growth in a cell viability assay.

SW1990 = type: functional, cell-based, Homo sapiens; conditions: Homo sapiens, SW1990;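 note: cell growth inhibition determined with a viability assay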
Description: SANGER: Inhibition of human SW1990 cell growth in a cell viability assay.

A-375 = type: functional, cell-based, Homo sapiens; conditions: Homo sapiens, A-375;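 note: growth inhibition of A375 cells, read out with a cell viability assay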
Description: SANGER: Inhibition of human A375 cell growth in a cell viability assay.

AGS = type: functional, cell-based, Homo sapiens; conditions: Homo sapiens, AGS;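 note: growth inhibition of AGS cells, determined with a cell viability assay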
Description: SANGER: Inhibition of human AGS cell growth in a cell viability assay.

HuP-T3 = type: functional, cell-based, Homo sapiens; conditions: Homo sapiens, HuP-T3;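 note: HuP-T3 cell growth inhibition, read out with a cell viability assay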
Description: SANGER: Inhibition of human HuP-T3 cell growth in a cell viability assay.

TE-8 = type: functional, cell-based, Homo sapiens; conditions: Homo sapiens, TE-8;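 note: growth inhibition of TE-8 cells, measured with a cell viability readout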
Description: SANGER: Inhibition of human TE-8 cell growth in a cell viability assay.

NCI-H1623 = type: functional, cell-based, Homo sapiens; conditions: Homo sapiens, NCI-H1623;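 note: cell viability assay used as the read-out for growth inhibition of NCI-H1623 cells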
Description: SANGER: Inhibition of human NCI-H1623 cell growth in a cell viability assay.

J82 = type: functional, cell-based; conditions: Homo sapiens;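 note: growth inhibition of J82 cells, read out with a cell viability assay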
Description: SANGER: Inhibition of human J82 cell growth in a cell viability assay.

MDA-MB-361 = type: functional, cell-based, Homo sapiens; conditions: Homo sapiens, MDA-MB-361
LK-2 = type: functional, cell-based, Homo sapiens; conditions: Homo sapiens, LK-2;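 note: growth inhibition of LK-2 cells, read out with a viability assay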
Description: SANGER: Inhibition of human LK-2 cell growth in a cell viability assay.

HL-60 = type: functional, cell-based; conditions: Homo sapiens;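 note: growth inhibition of human HL-60 cells, read out with a cell viability assay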
Description: SANGER: Inhibition of human HL-60 cell growth in a cell viability assay.

ChaGo-K-1 = type: functional, cell-based; conditions: Homo sapiens;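 note: growth inhibition of ChaGo-K-1 cells, read out with a cell viability assay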
Description: SANGER: Inhibition of human ChaGo-K-1 cell growth in a cell viability assay.

Measured: pIC50

O=c1cc(-c2cccc3c2Sc2ccccc2S3)oc(N2CCOCC2)c1 [KU-55933]
< 5.00: all assays above
